Reference: PubChem BioAssay AID248 (DTP/NCI, 2004)
Toxic doses and inconclusive results are not listed.

Test system: L1210 leukemia ip in BDF1 mice, survival T/C
Assay: NCI In Vivo Anticancer Drug Screen. Data for tumor model L1210 Leukemia (intraperitoneal) in B6D2F1 (BDF1) mice
Details: higher = longer survival
How it was run: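 Transplantable tumor model; survival measured in treated vs vehicle control mice. Value = treated/control.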

In the case of `O=C(O)c1cc(C(=O)Nc2ccc(C3=NCCN3)cc2)c(C(=O)O)cc1C(=O)Nc1ccc(C2=NCCN2)cc1`, the T/C (endpoint: mean survival time, dose: 15.0 mg/kg/injection, schedule: Q01DX Z (ip), vehicle: carboxymethylcellulose (CMC)) is reported as 95 % of control, the T/C (endpoint: mean survival time, dose: 30.0 mg/kg/injection, schedule: Q01DX Z (ip), vehicle: carboxymethylcellulose (CMC)) is reported as 98 % of control and the T/C (endpoint: mean survival time, dose: 60.0 mg/kg/injection, schedule: Q01DX Z (ip), vehicle: carboxymethylcellulose (CMC)) is reported as 101 % of control. The T/C (endpoint: mean survival time, dose: 120.0 mg/kg/injection, schedule: Q01DX Z (ip), vehicle: carboxymethylcellulose (CMC)) was 95 % of control.

`CC(C)C1NC(=O)C2CCCN2C1=O` (centres undefined) was tested, and the T/C (endpoint: mean survival time, dose: 100.0 mg/kg/injection, schedule: Q04DX003 (ip), vehicle: saline sonified) was 98 % of control, the T/C (endpoint: mean survival time, dose: 200.0 mg/kg/injection, schedule: Q04DX003 (ip), vehicle: saline sonified) was 96 % of control and the T/C (endpoint: mean survival time, dose: 400.0 mg/kg/injection, schedule: Q04DX003 (ip), vehicle: saline sonified) was 97 % of control.

In the case of `CC(=O)OC1C=CCC2C(=O)C34CC=CC(OC(C)=O)C3(C(=O)c3ccccc3C4=O)C(=O)C12` (centres undefined), the T/C (endpoint: mean survival time, dose: 0.25 mg/kg/injection, schedule: Q04DX003 (ip), vehicle: water) is reported as 97 % of control, the T/C (endpoint: mean survival time, dose: 0.5 mg/kg/injection, schedule: Q04DX003 (ip), vehicle: water) is reported as 102 % of control and the T/C (endpoint: mean survival time, dose: 1.0 mg/kg/injection, schedule: Q04DX003 (ip), vehicle: water) is reported as 95 % of control. The T/C (endpoint: mean survival time, dose: 2.0 mg/kg/injection, schedule: Q04DX003 (ip), vehicle: water) was 98 % of control, the T/C (endpoint: mean survival time, dose: 4.0 mg/kg/injection, schedule: Q04DX003 (ip), vehicle: water) was 102 % of control and the T/C (endpoint: mean survival time, dose: 8.0 mg/kg/injection, schedule: Q04DX003 (ip), vehicle: water) was 107 % of control. The T/C (endpoint: mean survival time, dose: 16.0 mg/kg/injection, schedule: Q04DX003 (ip), vehicle: saline) was 96 % of control, the T/C (endpoint: mean survival time, dose: 16.0 mg/kg/injection, schedule: Q04DX003 (ip), vehicle: water) was 92 % of control and the T/C (endpoint: mean survival time, dose: 32.0 mg/kg/injection, schedule: Q04DX003 (ip), vehicle: saline) was 98 % of control. For the same molecule, the T/C (endpoint: mean survival time, dose: 64.0 mg/kg/injection, schedule: Q04DX003 (ip), vehicle: saline) was 102 % of control.

For `COc1ccc(OCCCCCCCCCCBr)cc1`, the T/C (endpoint: mean survival time, dose: 100.0 mg/kg/injection, schedule: Q04DX002 (ip), vehicle: other) was 101 % of control, the T/C (endpoint: mean survival time, dose: 200.0 mg/kg/injection, schedule: Q04DX002 (ip), vehicle: other) was 96 % of control and the T/C (endpoint: mean survival time, dose: 400.0 mg/kg/injection, schedule: Q04DX002 (ip), vehicle: other) was 93 % of control.

`CC(/C=C/c1ccco1)=N\O` was tested, and the T/C (endpoint: mean survival time, dose: 50.0 mg/kg/injection, schedule: Q01DX009 (ip), vehicle: other) was 105 % of control.

`O=C(O)C(O)C1CCCCC1` (centres undefined) was tested, and the T/C (endpoint: mean survival time, dose: 100.0 mg/kg/injection, schedule: Q01DX001 (ip), vehicle: carboxymethylcellulose (CMC)) was 91 % of control, the T/C (endpoint: mean survival time, dose: 200.0 mg/kg/injection, schedule: Q01DX001 (ip), vehicle: carboxymethylcellulose (CMC)) was 104 % of control and the T/C (endpoint: mean survival time, dose: 400.0 mg/kg/injection, schedule: Q01DX001 (ip), vehicle: carboxymethylcellulose (CMC)) was 94 % of control.

With `CO[C@H]1C[C@H](O[C@H]2CC[C@]3(C=O)[C@H]4CC[C@]5(C)[C@@H](C6=CC(=O)OC6)CC[C@]5(O)[C@@H]4CC[C@]3(O)C2)O[C@H](C)[C@H]1O[C@@H]1O[C@H](CO)[C@@H](O)[C@H](O)[C@H]1O` the T/C (endpoint: mean survival time, dose: 0.25 mg/kg/injection, schedule: Q01DX015 (ip), vehicle: carboxymethylcellulose (CMC)) was 88 % of control, the T/C (endpoint: mean survival time, dose: 0.5 mg/kg/injection, schedule: Q01DX001 (ip), vehicle: saline) was 100 % of control and the T/C (endpoint: mean survival time, dose: 0.5 mg/kg/injection, schedule: Q01DX015 (ip), vehicle: carboxymethylcellulose (CMC)) was 113 % of control. For the same molecule, the T/C (endpoint: mean survival time, dose: 0.5 mg/kg/injection, schedule: Q04DX003 (ip), vehicle: saline) was 100 % of control, the T/C (endpoint: mean survival time, dose: 1.0 mg/kg/injection, schedule: Q01DX015 (ip), vehicle: carboxymethylcellulose (CMC)) was 89 % of control and the T/C (endpoint: mean survival time, dose: 1.0 mg/kg/injection, schedule: Q04DX003 (ip), vehicle: saline) was 103 % of control. For the same molecule, the T/C (endpoint: mean survival time, dose: 2.0 mg/kg/injection, schedule: Q01DX015 (ip), vehicle: carboxymethylcellulose (CMC)) was 97 % of control, the T/C (endpoint: mean survival time, dose: 4.0 mg/kg/injection, schedule: Q01DX001 (ip), vehicle: saline) was 98 % of control and the T/C (endpoint: median survival time, dose: 0.5 mg/kg/injection, schedule: Q01DX005 (ip), vehicle: water) was 104 % of control. For the same molecule, the T/C (endpoint: median survival time, dose: 1.0 mg/kg/injection, schedule: Q01DX005 (ip), vehicle: water) was 103 % of control and the T/C (endpoint: median survival time, dose: 2.0 mg/kg/injection, schedule: Q01DX005 (ip), vehicle: water) was 106 % of control.

With `NC(N)=NCCS(=O)(=O)Nc1ccc(Nc2c3ccccc3nc3cc([N+](=O)[O-])ccc23)cc1` the T/C (endpoint: mean survival time, dose: 0.75 mg/kg/injection, schedule: Q01DX009 (ip), vehicle: water) was 121 % of control, the T/C (endpoint: mean survival time, dose: 6.0 mg/kg/injection, schedule: Q01DX009 (ip), vehicle: water) was 163 % of control and the T/C (endpoint: mean survival time, dose: 25.0 mg/kg/injection, schedule: Q04DX003 (ip), vehicle: water) was 157 % of control. The T/C (endpoint: mean survival time, dose: 50.0 mg/kg/injection, schedule: Q04DX003 (ip), vehicle: water) was 175 % of control.
